Experimental data taken from patent US20120009152A1, “NITRIC OXIDE DONORS FOR TREATMENT OF DISEASE AND INJURY” (priority 2002, published 2012).

Assays:
[1] = test system: cerebral vessels in the ischemic boundary regions; test: Angiogenesis in ischemic brain after embolic MCA occlusion (vascular perimeters, BrdU endothelial cells, three dimensional vessel analysis); type: in vivo, rat
Experimental: Male Wistar rats weighing 320-380 gm were employed. The middle cerebral artery (MCA) was occluded by placement of an embolus at the origin of the MCA.
(§1) DETANONOate (0.4 mg/kg) was intravenously administered to rats (n=8) 24 hours after stroke and daily (i.p) for an additional 6 consecutive days. Ischemic rats (n=8) treated with the same volume of decayed DETANONOate were used as a control group. All rats were sacrificed 14 days after stroke. 2) To examine the effect of exogenous NO on brain levels of VEGF, DETANONOate (0.4 mg/kg) or saline was administered to ischemic rats (n=3 for each group) with the identical paradigm described in Protocol 1. These rats were sacrificed 7 days after stroke. […] Rats were sacrificed 14 days after stroke.
Bromodeoxyuridine (BrdU, Sigma Chemical), the thymidine analog that is incorporated into the DNA of dividing cells during S-phase, was used for mitotic labeling. BrdU (50 mg/kg) was […] (i.p) daily for 13 consecutive days into ischemic rats starting 1 day after MCA occlusion.
To examine neovascularization in ischemic brain, fluorescein isothiocyanate (FITC) dextran (2×10^6 molecular weight, Sigma, St. Louis, Mo.; 0.1 ml of 50 mg/ml) was administered intravenously to the ischemic rats subjected to 14 days of MCAo. Ti brains were rapidly removed from the severed heads and placed in 4% of paraformaldehyde at 4° C. for 48 hours. Coronal sections (100 μm) were cut on a vibratome. The vibratome sections were analyzed with a Bio-Rad MRC 1024 (argon and krypton) laser-scanning confocal imaging system mounted onto a Zeiss microscope (Bio-Rad; Cambridge, Mass.), as previously described. Seven 100 μm thick vibratome coronal sections at 2 mm intervals from bregma 5.2 mm to bregma −8.8 mm from each animal injected with FITC-dextran were selected. Eight brain regions in the ipsilateral and contralateral hemispheres were selected within a reference coronal section (interaural 8.8 mm, bregma 0.8 mm). These regions were scanned in 512×512 pixel (276×276 μm^2) format in the x-y direction using a 4× frame-scan average and twenty-five optical sections along the z-axis with a 1 μm step-size were acquired under a 40× objective. Vascular branch points, segment lengths and diameters were measured in three dimensions using software developed in the laboratory. Image acquisition and analysis were performed blindly.
For BrdU immunostaining, DNA was first denatured by incubating brain sections (6 μm) in 50% formamide 2×SSC at 65° C. for 2 hours and then in 2N HCl at 37° C. for 30 minutes. Sections were then rinsed with tris buffer and treated with 1% of H2O2 to block endogenous peroxidase. Sections were incubated with a mouse monoclonal antibody (mAb) against BrdU (1:1000, Boehringer Mannheim, Indianapolis, Ind. overnight and incubated with biotinylated secondary antibody (1:200, Vector, Burlingame, Calif.) for 1 hour.
To quantify BrdU immunoreactive endothelial cells, numbers of endothelial cells and numbers of BrdU immunoreactive endothelial cells in ten enlarged vessels adjacent to the ischemic lesion were counted from each rat. Numbers of endothelial cells and BrdU immunoreactive endothelial cells in the ten vessels of the contralateral homologous area were also counted. Data are presented as percentage of BrdU immunoreactive endothelial cells to total endothelial cells in ten enlarged vessels from each rat.
Vascular perimeters were measured on coronal sections immunostained with an anti-von Willebrand factor antibody as previously described.

[2] = test system: Mouse brain-derived endothelial cells; test: Capillary-like tube formation assay; type: cell-based
Experimental: An in vitro angiogenesis assay was performed. Briefly, 0.8 ml of growth factor reduced Matrigel (Becton Dickinson) was added to pre-chilled 35 mm culture dishes and allowed to polymerize at 37° C. for 2 to 5 hours. […] For quantitative measurements of capillary tube formation, three random areas of Matrigel dishes were imaged and the length of continuous cords of three or more cells was measured.

rat VEGF = test: ELISA for VEGF in ischemic boundary regions; type: in vivo; conditions: control 13.4±1.5
Experimental: as §1
The ischemic boundary regions and homologous tissue in the contralateral hemisphere were dissected. The tissue was homogenized and centrifuged at 10,000 g for 20 min at 4° C. and the supernatant was collected. ELISA for VEGF in the supernatants was performed using a commercially available kit specific for rat VEGF (R&D, systems) according to the manufacture's instruction.

[3] = test system: TuJ1-immunoreactive cells in the subventricular zone and striatum; test: TuJ1 immunostaining of immature neurons after embolic MCA occlusion; type: in vivo, rat
Experimental: Male Wistar rats weighing 320 to 380 g were used in the present study. The middle cerebral artery (MCA) was occluded by placement of an embolus at the origin of the MCA. […] Ischemic rats (n=9) were treated with the same volume of tap water as a control group. Functional tests were performed and body weight was measured before ischemia and at 4, 7, 14, 21, and 28 days after onset of MCA occlusion. All rats were killed 28 days after MCA occlusion. […] These rats were killed 1 hour after the last treatment for measurements of brain levels of cGMP. […] Reverse transcription (RT)-polymerase chain reaction (PCR) was performed to detect PDE5 in brain tissue. […] Reaction product was detected with the use of 3′3′-diaminobenzidine-tetrahydrochloride (DAB; Sigma), For ′III-tubulin (TuJ1) immunostaining, which identifies immature neurons, 12 coronal sections were incubated with the antibody against TuJ1 (1:1000) at 4° C. overnight and were then incubated with a biotinylated horse anti-mouse immunoglobulin antibody at room temperature for 30 minutes. […] BrdU-immunoreactive nuclei were counted on a computer monitor to improve visualization and in 1 focal plane to avoid oversampling. All BrdU-immunoreactive-positive nuclei were counted in both the ipsilateral and contralateral walls of the lateral ventricle of the subventricular zone and in the dentate gyrus. […]

[4] = cited from earlier work
[5] = DETANONOate 0.4 mg/kg, three dimensional analysis

SMILES	vessel enlargement in the contralateral hemisphere ([1]; DETANONOate 0.4 mg/kg from 24 h after stroke for 7 days, 14 days after stroke)	vascular perimeters around the ischemic lesion ([1]; DETANONOate 0.4 mg/kg from 24 h after stroke for 7 days, 14 days after stroke, vs decayed DETANONOate control)	numbers of proliferated (BrdU immunoreactive) endothelial cells ([1]; DETANONOate 0.4 mg/kg from 24 h after stroke for 7 days, vs control)	capillary segment diameters [1, 5]	capillary segment lengths [1, 5]	numbers of capillary segments in the boundary regions of ischemia ([1]; DETANONOate 0.4 mg/kg, three dimensional analysis, vs decayed DETANONOate)	capillary-like tube formation ([2]; DETANONOate 0.2 μM, 3 hours, vs DMEM only)	VEGF levels in the ischemic boundary regions (rat VEGF; DETANONOate 0.4 mg/kg from 24 h after stroke, 7 days after stroke, n=3) [pg/mL]	numbers of TuJ1-immunoreactive cells in the ipsilateral and contralateral subventricular zones ([3]; sildenafil 2 or 5 mg/kg, 28 days after ischemia, vs control rats)	number of TuJ1 cells in the ipsilateral striatum ([3]; sildenafil, vs contralateral hemisphere and ipsilateral striatum of control rats)	angiogenesis in ischemic brain ([1]; Sildenafil 2 mg/kg fed from 24 h after stroke, daily 7 days, 14 days after stroke)	capillary-like tube formation ([2]; Sildenafil 100 to 500 nM)	VEGF levels in the ischemic boundary (rat VEGF; Sildenafil treated ischemic rats, n=3 per group) [pg/mL]	half-life in rats [4] [min]
NCCN(CCN)/[N+]([O-])=N/O [DETANONOate, (Z)-1-[N-(2-aminoethyl)-N-(2-ammonioethyl)aminio]diazen-1-ium-1,2-diolate]	did not enlarge vessels in the contralateral hemisphere	significantly (P<0.01) enlarged vascular perimeters	significantly (p<0.05) increased	significantly smaller diameters	shorter segment lengths	significantly (p<0.05) increased the numbers of capillary segments	significant increase in capillary-like tube formation	28.9 ± 1.0						
CCCc1nn(C)c2c(=O)[nH]c(-c3cc(S(=O)(=O)N4CCN(C)CC4)ccc3OCC)nc12 [Sildenafil]									significantly (P=0.05) increased numbers of TuJ1-immunoreactive cells	significantly increased the number of TuJ1 cells	significant increase of angiogenesis	concentration-dependent capillary-like tube formation	34.4 ± 2.9	24
